Assay results published in patent US10045994B2, “Agents for treating multiple myeloma” (SERVICIO ANDALUZ DE SALUD, priority 2013, dated 2018).
Entries after “also recorded” stand apart in the source; their conditions may differ. Where two headings read alike, the source gives them in different places.

Columns and labels:
[1] = test system: myeloma cell line U266; experiment: MTT cell viability, myeloma cell line U266; type: cell-based; conditions: for cytotoxicity at 50 µM: Homo sapiens
Description: In order to determine the effect of the cannabinoid compound WIN 55,212-2, myeloma cell line U266 was incubated for a period of 48 and 96 hours with increasing concentrations of WIN 55,212-2 between 0.5 and 50 uM; cell viability was determined by means of the MTT metabolization. The MTT assay is based on the capacity of the mitochondrial enzyme, succinate dehydrogenase, of viable cells for transforming the tetrazolium salt MTT into a blue-colored product, MTT formazan, which is proportional to the number of living cells present. The mean proliferation values of the untreated control cell cultures were taken as 100%.
(§1) The method for the determination of cell viability by means of the MTT assay is based on the capacity that viable cells have of metabolizing 3-(4,5-dimethylthiazol-2-yl)-2,5-diphenyltetrazol (MTT) bromide. The metabolic reduction of MTT due to the action of the mitochondrial enzyme, succinate dehydrogenase, gives rise to the insoluble and colored form called formazan, which can be quantified by means of spectrocolorimetry. The amount of living cells is proportional to the optical density resulting.
(§2) After incubation with cannabinoids, 10 microliters of MTT were added to each well and were incubated 2-4 hours in the same conditions. The reaction is subsequently stopped, the crystallized formazan is solubilized and optical density was determined at 450 nm in a plate spectrophotometer. All the assays were performed in triplicate.
To determine the effect of cannabinoid compound WIN 55,212-2, myeloma cell line U266 was incubated for a period of 48 and 96 hours with increasing concentrations of WIN 55,212-2 between 0.5 and 50 uM; cell viability was determined by means of MTT metabolization. The MTT assay is based on the capacity of the mitochondrial enzyme, succinate dehydrogenase, of viable cells to transform tetrazolium salt MTT into a blue-colored product, formazan MTT, which is proportional to the number of living cells present. Mean proliferation values of untreated control cell cultures were taken as 100%.

[2] = test system: myeloma cell line U266; experiment: Cell viability by flow cytometry (7AAD labeling), U266; type: cell-based; conditions: U266, 7AAD flow cytometry, 48 h
Description: These same assays were repeated incubating the myeloma cell line U266 for a period of 48 hours with increasing concentrations of WIN 55,212-2 between 0.5 and 50 uM.
(§3) For the viability analysis by means of flow cytometry, the cells were treated with suitably labeled monoclonal antibodies for the identification of each of the cell types used. Once labeled; the cells were exposed for 15 min to 7AAD ([…]) to evaluate cell viability; the reading was performed in the cytometer and analyzed with the computer program adapted for the cytometer. At least 100,000 events were acquired, and the mean fluorescence intensity was obtained.
These same assays were repeated, incubating myeloma cell line U266 for a period of 48 hours with increasing concentrations of WIN 55,212-2 between 0.5 and 50 uM. Nevertheless, cell viability was determined by means of flow cytometry instead of by means of MTT metabolization.

[3] = test system: multiple myeloma cell line MM1.S; experiment: MTT cell viability, multiple myeloma cell line MM1.S; type: cell-based
Description: (§4) In this sense, in order to carry out these assays the authors incubated the myeloma cell line MM1.S at different concentrations with the cannabinoid agent WIN 55-212,2 for 48 and 96 hours, and cell viability was determined by means of MTT metabolization. Mean proliferation values of untreated control cell cultures were taken as 100%. The data corresponds to the means+/−the standard deviation of the triplicates of each of the 4 assays performed. […] Cell viability also drops after 96 hours of exposure to the drug at the same concentrations.
as §1, §2
as §4, with “incubated” for “incubated the”, “the means +/− the” for “the means+/−the”, “drug ay” for “drug at”

[4] = test system: CD34+ hematopoietic progenitors; experiment: MTT cytotoxicity on CD34+ hematopoietic progenitors from healthy donors; type: cell-based, human; conditions: CD34+ hematopoietic progenitors of healthy donors, 0.5-50 micromol, 12 or 18 h
Description: (§5) Finally, the authors of the present invention evaluated the toxicity of cannabinoid agent WIN 55,212-2, which was determined in terms of cell viability by means of two types of assays, one based on the drop in 3(4,5dimethyl-2-thiazoyl)-2,5-diphenyltetrazolic bromide (MTT), and another one based on the interaction of 7AAD. Primary cultures of mononuclear cells obtained from peripheral blood from healthy donors (CD34+ hematopoietic progenitors) and from bone marrow of patients suffering multiple myeloma (CD64+, granulocytes (B), CD45+, lymphocytes (C) and CD38+, plasma cells (D)) were used. […]
as §1, with “The amount of living cells is proportional to the optical density resulting.” left out
After incubation with cannabinoids, 10 microliters of MTT were added to each well and were incubated 2-4 hours in the same conditions. The reaction is subsequently stopped, the crystallized formazan is solubilized and optical density was determined at 450 nm in a plate spectrophotometer. […]

[5] = test system: CD64+ granulocytes (polymorphonuclear cells); experiment: 7AAD viability of granulocytes in primary bone marrow culture of myeloma patients; type: cell-based, human; conditions: 0.5-50 micromol, 18 h
Description: as §5, §3
(§6) The authors of the present invention evaluated the toxicity of cannabinoid agent WIN 55,212-2, which was determined in terms of cell viability by means of two types of assays, one based on the drop in 3(4,5dimethyl-2-thiazoyl)-2,5-diphenyltetrazolic (MTT) bromide, and another one based on the interaction of the 7AAD. […]

[6] = test system: CD45+ lymphocytes; experiment: 7AAD viability of lymphocytes in primary bone marrow culture of myeloma patients; type: cell-based, human
Description: as §5, §3, §6

[7] = test system: CD38+ plasma cells; experiment: 7AAD viability of plasma cells in primary bone marrow culture of myeloma patients; type: cell-based, human
Description: Finally, the authors of the present invention evaluated the toxicity of cannabinoid agent WIN 55,212-2, which was determined in terms of cell viability by means of two types of assays, one based on the drop in 3(4,5dimethyl-2-thiazoyl)-2,5-diphenyltetrazolic bromide (MTT), and another one based on the interaction of 7AAD. Primary cultures of mononuclear cells obtained from peripheral blood from healthy donors (CD34+ hematopoietic progenitors) and from bone marrow of patients suffering multiple myeloma (CD64+, granulocytes (B), CD45+, lymphocytes (C) and CD38+, plasma cells (D)) were used.
The plasma cells, granulocytes and lymphocytes were obtained from bone marrow samples from patients with multiple myeloma after hypotonic lysis with ammonium chloride (0.16 M in 0.17 M Tris, pH 7.6) for 10 min at room temperature, for the purpose of removing the erythrocyte cell population. The cell suspension resulting from lysis, which only contains mononuclear cells, was seeded in multiwell plates at the same cell density as the progenitor cells using supplemented RPMI medium plus 20% fetal bovine serum.
The primary cultures were incubated in the presence and absence of the cannabinoid agent WIN 55,212-2 at different concentrations. […]
as §3, §6

In the case of `Cc1c(C(=O)c2cccc3ccccc23)c2cccc3c2n1[C@H](CN1CCOCC1)CO3` [WIN 55,212-2, (R)-(+)-[2,3-Dihydro-5-methyl-3-(4-morpholinylmethyl)pyrrolo[1,2,3-de]-1,4 benzoxazin-6-yl]-1-naphtalenylmethanone], the cytotoxicity at 50 µM ([1]; U-266, 48 h, read-out: inhibition of cell viability, U266, MTT, 48 h, 50 uM) is reported as about 60%, the cytotoxicity at 50 µM ([1]; U-266, 96 h, read-out: inhibition (drop) of cell viability, U266, MTT, 96 h, 50 uM) is reported as about 80% and the “cell viability drops to” value ([1]; U266, MTT, 48 h, 10 uM and 20 uM, untreated control = 100%) is reported as 40%. For the same molecule, the “inhibition of cell viability” value ([1]; U266, MTT, 48 h, between 10 uM and 20 uM) was “about 40%”, the “concentration from which a cytotoxic effect (significant drop in cell viability, p<0.05) is seen” value [2] was at least 10 µM and the “sensitivity of cell line MM1.S compared with cell line U266” value ([3]; 48 and 96 h) was “more sensitive”. The “concentration after which cell viability noticeably dropped” value ([3]; MM1.S, 48 h) was “greater than 1 uM”, the cytotoxicity ([3]; MM1.S, 48 h, 10 uM, 20 uM and 50 uM) was “greater than 50%” and the “cell viability after longer incubation” value ([3]; MM1.S, 96 h, same concentrations as at 48 h) was “also drops; also recorded: also affected”. The “drop in cell viability at 96 h compared with 48 h” value ([3]; MM1.S, 96 h vs 48 h) was “lower than at short incubation times”, the cell viability [4] was “not affected” and the cell viability [5] was “not affected”. The loss of viability ([6]; 0.5-50 micromol, 12 or 18 h) was “only detected at the highest dose”, the “drop in cell viability” value ([6]; 7AAD, 18 h, 50 uM) was 40% and the cytotoxicity at 50 µM ([7]; Homo sapiens, 18 h, read-out: reduction of cell viability) was over 80%. The “doses producing a drastic drop in cell viability” value ([7]; plasma cells, bone marrow primary culture, 12 or 18 h) was “greater than 10 uM” and the “population of plasma cells after incubation” value ([7]; plasma cells, bone marrow primary culture, 18 h, 20 uM and 50 uM) was “drastically reduced”.
